Measured values from patent publication US12234463B2, “Engineered microorganisms with G3P → 3PG enzyme and/or fructose-1,6-bisphosphatase including those having synthetic or enhanced methylotrophy” (Genomatica, Inc., priority 2018, dated 2025).
Where two headings read alike, the source gives them in different places.

Experiments:
[1] = tested on: E. coli transketolase A (TktA); details: ref. [3], cited from earlier work
[2] = tested on: E. coli fructose-6-phosphate aldolase (F6P aldolase, fsa) variant A129S; details: cited from earlier work
[3] = tested on: E. coli fructose-6-phosphate aldolase (F6P aldolase, fsa), wild type; details: cited from earlier work; for Km: purified enzyme
[4] = tested on: dihydroxyacetone synthase from Mycobacter sp. strain JC1 DSM 3803; details: cited from earlier work
[5] = tested on: B. methanolicus transketolase; details: ref. [2] Markert et al., cited from earlier work
[6] = molecular target: T1, Bacillus methanolicus PB1 GapN (NADP-dependent glyceraldehyde-3-phosphate dehydrogenase), cds 10662A (Bacillus methanolicus, UniProt I3E1I1); assay: GapN vs. GapA kinetic comparison: catalytic constants of BM PB1 GapN (cds 10662A, Table 18); assay type: biochemical; details: fixed NADP; G3P varied
T1 sequence (I3E1I1 1-481): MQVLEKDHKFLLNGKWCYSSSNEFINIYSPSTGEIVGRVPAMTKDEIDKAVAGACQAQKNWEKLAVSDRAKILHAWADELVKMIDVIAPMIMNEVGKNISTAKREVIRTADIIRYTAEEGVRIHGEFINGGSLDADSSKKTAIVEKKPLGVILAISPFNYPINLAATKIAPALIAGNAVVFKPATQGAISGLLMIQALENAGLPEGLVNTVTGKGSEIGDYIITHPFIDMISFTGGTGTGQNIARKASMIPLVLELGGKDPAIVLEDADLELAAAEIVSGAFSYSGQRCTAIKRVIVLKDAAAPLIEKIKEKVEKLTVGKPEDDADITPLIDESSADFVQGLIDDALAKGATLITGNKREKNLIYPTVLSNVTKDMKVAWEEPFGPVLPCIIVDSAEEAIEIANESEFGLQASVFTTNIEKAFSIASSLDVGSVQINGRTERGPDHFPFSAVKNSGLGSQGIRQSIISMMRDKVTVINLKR

[7] = molecular target: T2, Bacillus methanolicus MGA3 GapN (NADP-dependent glyceraldehyde-3-phosphate dehydrogenase), cds 10663A (Bacillus methanolicus, UniProt I3EBG2); assay: GapN vs. GapA kinetic comparison: catalytic constants of BM MGA3 GapN (cds 10663A, Table 18); assay type: biochemical; details: fixed NADP; G3P varied
T2 sequence (I3EBG2 1-481): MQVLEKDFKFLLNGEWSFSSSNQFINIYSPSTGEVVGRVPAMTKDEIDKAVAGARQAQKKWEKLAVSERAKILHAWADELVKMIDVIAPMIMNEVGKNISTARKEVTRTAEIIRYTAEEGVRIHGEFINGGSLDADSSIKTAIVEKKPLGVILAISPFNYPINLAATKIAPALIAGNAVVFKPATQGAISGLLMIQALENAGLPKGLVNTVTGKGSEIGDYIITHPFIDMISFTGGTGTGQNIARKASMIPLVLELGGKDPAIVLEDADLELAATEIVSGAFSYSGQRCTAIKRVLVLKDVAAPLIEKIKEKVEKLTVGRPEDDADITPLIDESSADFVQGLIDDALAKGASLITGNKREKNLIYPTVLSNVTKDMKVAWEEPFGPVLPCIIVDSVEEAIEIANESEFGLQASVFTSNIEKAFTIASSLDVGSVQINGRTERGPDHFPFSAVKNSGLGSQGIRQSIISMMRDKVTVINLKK

[8] = tested on: E. coli ribose 5-phosphate isomerase A (RpiA); details: read-out: Michaelis constant for ribose 5-phosphate; cited from earlier work
[9] = tested on: E. coli ribose 5-phosphate isomerase B (RpiB); details: read-out: Michaelis constant for ribose 5-phosphate; cited from earlier work
[10] = reaction products, read-out: KM (products)
[11] = reaction substrates, read-out: KM (substrates)
[12] = fold reduction compared to wild type enzyme

For `O=C[C@H](O)[C@H](O)COP(=O)(O)O`, the Km [1, 10] is listed as 90 µM.
For `O=C(CO)CO` [dihydroxyacetone], the “improved reactivity towards DHA in terms of Kcat/Km” value ([2]; fold improvement) is given as “over 17 fold” and the Km [3] is given as 35000 µM.
For `C=O` [formaldehyde], the Km ([4]; read-out: Km for formaldehyde) is given as 1860 µM.
In the case of `O=P(O)(O)OC[C@H]1OC(O)(CO)[C@@H](O)[C@@H]1O` (stereo partly shown) [fructose 6-phosphate], the “Vmax for fructose 6-phosphate cleavage” value ([3]; 30 degrees C., pH 8.5, 50 mm glycylglycine buffer) is given as 7 units/mg of protein, the Km [3] is given as 9000 µM and the Km [1, 11] is given as 1100 µM. The Km [5, 11] was 720 µM.
In the case of `O=C[C@H](O)COP(=O)(O)O` [glyceraldehyde 3-phosphate], the Km [6] is reported as 1100 ± 300 µM, the “kcat (G3P)” value [6] is reported as 8.9 ± 0.8 S^−1 and the Km [7] is reported as 1600 ± 100 µM. The “kcat (G3P)” value [7] was 9.5 ± 0.8 S^−1, the Km [3] was 800 µM and the Km [1, 11] was 2100 µM. The Km [5, 11] was 920 µM.
In the case of `O=CCO` [glycoaldehyde], the “reduced affinity for glycoaldehyde” value [2, 12] is listed as “more than 3 fold”.
In the case of `CC(=O)CO` [hydroxyacetone], the “reduced catalytic efficiency on hydroxyacetone” value [2, 12] is given as “more than 3 fold”.
For `O=P(O)(O)OC[C@H]1OC(O)[C@H](O)[C@@H]1O` (stereo partly shown) [ribose 5-phosphate], the Km [1, 10] is listed as 1400 µM, the Km [8] is listed as 4400 µM and the Km [9] is listed as 830 µM. For the same compound, the Km [5, 10] was 120 µM.
For `O=C(CO)[C@@H](O)[C@H](O)[C@H](O)[C@H](O)COP(=O)(O)O` [sedoheptulose 7-phosphate], the Km [1, 11] is listed as 4000 µM.
For `O=C(CO)[C@@H](O)[C@H](O)COP(=O)(O)O` [xylulose 5-phosphate], the Km [1, 10] is listed as 160 µM, the Km [5, 10] is listed as 150 µM and the Km ([4]; read-out: Km for xylulose 5-phosphate) is listed as 33.3 µM.
